Entries after “also recorded” stand apart in the source; their conditions may differ. Where a name gives a salt, the structure may show the parent alone.
Test system: HeLa human cervical carcinoma cells
Assay: High-content analysis of mitotic arrest in HeLa cells
Assay type: cell-based
Conditions: for Microtubule Density MDEC (minimum detectable effective concentration) / Mitotic Index MDEC (percentage of phosphohistone H3-positive cells) / Nuclear Condensation MDEC (minimum detectable effective concentration) / EC50: 20 hours treatment, average of four experiments ± SD; for EC50: Homo sapiens, read-out: Cell Density EC50; for activity in high-content analysis of mitotic arrest (in words): all endpoints measured
Description: The effects of tubulysin analogs on mitotic arrest and cellular microtubules were studied. HeLa human cervical carcinoma cells (10,000 per well) were plated in collagen-1 coated 384-well microplates and were treated with vehicle (DMSO) or ten two-fold concentration gradients of test agents within 4-6 hours of seeding. Cells were incubated for 20 hours at 37° C., fixed with formaldehyde, and labeled with 10 μg/mL Hoechst 33342 in Hank's balanced salt solution (HBSS). Cells were permeabilized with 0.5% (w/w) Triton X-100 for 5 min at room temperature and incubated with a primary antibody cocktail consisting of an HBSS solution containing rabbit polyclonal anti-phosphohistone H3 (Ser10, 1:500, Upstate), and mouse monoclonal anti-α-tubulin (1:3000, Sigma), followed by a mixture of FITC-labeled donkey anti-mouse IgG (1:500) and Cy3-labeled donkey anti-rabbit IgG (1:500). Cells were rinsed once with HBSS and stored at 4° C. in HBSS until analysis.
Microplates were analyzed with an ArrayScanII instrument (Cellomics, Pittsburgh, Pa.) using the Target Activation Bioapplication (Cellomics, Inc.). Within the application, 1,000 individual cells in each well were imaged at three different wavelengths, using an Omega XF93 filter set at excitation/emission wavelengths of 350/461 nm (Hoechst), 494/519 nm (FITC), and 556/573 nm (Cy3). The following parameters were used for data analysis: average nuclear intensity, nuclei per field, average nuclear FITC intensity, and average nuclear Cy3 intensity. A nuclear mask was generated from Hoechst 33342-stained nuclei. Microtubule density and histone H3 phosphorylation were measured in the FITC and Cy3 channel, respectively. Microtubule density was defined as the average green (FITC) pixel intensity in an area defined by the nuclear mask. For determination of mitotic index and nuclear condensation, thresholds for Hoechst 33342 and phosphohistone-H3 intensities were defined as the average Hoechst 33342 or Cy3 intensity plus one standard deviation from twenty-eight vehicle-treated wells placed in the center of the microplate.
Cells were classified as positive if their average Hoechst 33342 or Cy3 intensity exceeded this threshold. To illustrate visually the effects of test agents on cellular microtubules and mitotic arrest, the identical 384-well plates then were used to acquire higher resolution images of selected wells.
Asynchronously growing HeLa cells were treated for 20 hours with each compound in collagen-coated 384 well microplates, fixed, and incubated with primary antibodies for tubulin and the mitotic marker protein phosphohistone H3, followed by FITC and Cy3-conjugated secondary antibodies, respectively. Cells were detected by nuclear counterstaining with Hoechst 33342, which also provided information about chromatin condensation and cell density as markers of cell death.

SMILES: CCC(C)[C@H](NC(=O)[C@H]1CCCCN1C)C(=O)N(C)[C@H](C[C@@H](OC(C)=O)c1nc(C(=O)N[C@@H](Cc2ccccc2)C[C@H](C)C(=O)O)cs1)C(C)C (stereo partly shown) [WZY-III-63C, N^14-Desacetoxytubulysin H trifluoroacetic acid salt]
- Microtubule Density MDEC (minimum detectable effective concentration): 0.16 ± 0.05 nM
- Mitotic Index MDEC (percentage of phosphohistone H3-positive cells): 0.10 ± 0.02 nM
- Nuclear Condensation MDEC (minimum detectable effective concentration): 0.13 ± 0.04 nM
- EC50: 0.37 ± 0.09 nM
- activity in high-content analysis of mitotic arrest (in words) (trifluoroacetic acid salt): active in the picomolar range; also recorded: almost two orders of magnitude more potent than vincristine or paclitaxel; also recorded: activity in the picomolar range
- potency relative to paclitaxel, vincristine, or WZY-III-69A (all of the endpoints measured): ~50 fold

SMILES: CCC(C)[C@H](NC(=O)CN(C)C)C(=O)N(C)[C@H](C[C@H](OC(C)=O)c1nc(C(=O)N[C@@H](Cc2ccccc2)C[C@H](C)C(=O)O)cs1)C(C)C (stereo partly drawn) [WZY-III-64A, (2S,4R)-4-(2-((6S,9R,11S)-6-sec-Butyl-9-isopropyl-2,8-dimethyl-4,7,13-trioxo-12-oxa-2,5,8-triazatetradecan-11-yl)thiazole-4-carboxamido)-2-methyl-5-phenylpentanoic acid]
- Microtubule Density MDEC (minimum detectable effective concentration): 56.6 ± 30.9 nM
- Mitotic Index MDEC (percentage of phosphohistone H3-positive cells): 23.9 ± 5.8 nM
- Nuclear Condensation MDEC (minimum detectable effective concentration): 32.4 ± 8.6 nM
- EC50: 95.7 ± 20.8 nM
- activity in high-content analysis of mitotic arrest (in words): about five-fold less active

SMILES: CCC(C)[C@H](NC(=O)CN(C)C)C(=O)N(C)[C@H](C[C@@H](OC(C)=O)c1nc(C(=O)N[C@@H](Cc2ccccc2)C[C@H](C)C(=O)O)cs1)C(C)C (stereo partly drawn) [WZY-III-69A, (2S,4R)-4-(2-((6S,9R,11R)-6-sec-Butyl-9-iso-propyl-2,8-dimethyl-4,7,13-trioxo-12-oxa-2,5,8-triazatetradecan-11-yl)thiazole-4-carboxamido)-2-methyl-5-phenylpentanoic acid]
- Microtubule Density MDEC (minimum detectable effective concentration): 15.1 ± 11.1 nM
- Mitotic Index MDEC (percentage of phosphohistone H3-positive cells): 2.5 ± 0.4 nM
- Nuclear Condensation MDEC (minimum detectable effective concentration): 12.4 ± 10.2 nM
- EC50: 17.5 ± 6.6 nM
- activity in high-content analysis of mitotic arrest (in words): as active as paclitaxel or vincristine
